Among the data in BindingDB's records for doi:10.7270/Q2736PBV (Broad Institute, 2009) are EC50 values, retold here.

As usually defined, the EC50 is the concentration at which the effect is half-maximal. Read a high EC50 as a less potent agent.

This experiment concerns the target T1, Streptokinase A (Streptococcus pyogenes serotype M1, UniProt P10520).
T1 sequence (P10520 whole entry): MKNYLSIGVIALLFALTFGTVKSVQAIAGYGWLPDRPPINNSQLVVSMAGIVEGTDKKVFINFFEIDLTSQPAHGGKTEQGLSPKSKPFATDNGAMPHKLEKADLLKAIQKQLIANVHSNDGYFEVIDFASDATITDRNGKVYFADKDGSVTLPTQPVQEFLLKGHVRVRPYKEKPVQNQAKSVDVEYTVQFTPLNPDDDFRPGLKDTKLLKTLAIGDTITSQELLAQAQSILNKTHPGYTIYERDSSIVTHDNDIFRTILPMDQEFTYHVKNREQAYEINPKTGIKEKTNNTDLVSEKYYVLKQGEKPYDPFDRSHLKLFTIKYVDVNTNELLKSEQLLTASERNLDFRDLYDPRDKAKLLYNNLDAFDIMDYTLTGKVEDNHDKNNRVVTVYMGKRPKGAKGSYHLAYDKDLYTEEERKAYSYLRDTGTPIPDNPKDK
As to the kind of experiment: viability-normalized secreted streptokinase activity reduction – plasminogen activation absorbance, OD405, dose response (AID 1914).
`CCOc1cccc(CN=Nc2ccc(S(=O)(=O)N(CC)CC)cn2)c1O` [6-[2-[(E)-(5-ethoxy-6-oxidanylidene-cyclohexa-2,4-dien-1-ylidene)methyl]hydrazinyl]-N,N-diethyl-pyridine-3-sulfonamide] registered an EC50 of over 150 µM.
As to `COc1ccc2nc(-n3c(O)c[nH]c3=S)sc2c1` [3-(6-methoxy-1,3-benzothiazol-2-yl)-2-sulfanylidene-imidazolidin-4-one], the EC50 was over 150 µM.
With `COC1=CC(CN=Nc2nc3ccccc3s2)C=C([N+](=O)[O-])C1=O` (configuration not stated) [MLS000777866] the figure was over 150 µM; with `COc1cccc(C(=O)Oc2ccc(CN=Nc3ccc(C(=O)O)cc3)cc2OC)c1` [SMR000502791], over 150 µM.
`CC(=N)C(C#N)C(=O)COC(=O)c1cc(-c2ccc(Br)cc2)nc2ccccc12` (configuration not stated) [SMR000264784] registered an EC50 of 4.43 µM.
Under `COC1=CC([N+](=O)[O-])=CC(/C=N/NC(=O)C(C)Nc2cccc(C)c2)C1=O` (configuration not stated) [N'-[(1E)-(2-hydroxy-3-methoxy-5-nitrophenyl)methylene]-2-[(3-methylphenyl)amino]propanohydrazide] stands over 150 µM; under `Cc1ccc(C(=O)C2C(=O)C(=O)N(Cc3ccco3)C2c2cccc(Br)c2)o1` (configuration not stated) [2-(3-bromophenyl)-1-(2-furanylmethyl)-4-hydroxy-3-[(5-methyl-2-furanyl)-oxomethyl]-2H-pyrrol-5-one], over 150 µM.
In turn, `CCc1ccc2nc(N3C(=O)C(=O)C(C(=O)c4ccco4)C3c3cccs3)sc2c1` (configuration not stated) [1-(6-ethyl-1,3-benzothiazol-2-yl)-3-(furan-2-ylcarbonyl)-4-oxidanyl-2-thiophen-2-yl-2H-pyrrol-5-one] registered an EC50 of over 150 µM.
Under `CN(C)S(=O)(=O)c1ccc(-c2csc(N=NCc3ccc(O)cc3)n2)cc1` [N,N-dimethyl-4-[2-[2-[(4-oxidanylidenecyclohexa-2,5-dien-1-ylidene)methyl]hydrazinyl]-1,3-thiazol-4-yl]benzenesulfonamide] stands over 150 µM.
With `CCN(CC)c1ccc(C=NC(C#N)C(=N)C#N)cc1` (configuration not stated) [SMR000023871] the figure was over 150 µM.
With `CCOc1cc(CN=Nc2cccc(C(=O)O)c2)ccc1OC(=O)c1ccccc1` [3-[(N''E)-N''-(4-benzoyloxy-3-ethoxy-benzylidene)hydrazino]benzoic acid] the figure was over 150 µM; with `C=Nc1c(N(C(C)=O)c2ccc(Br)cc2)c(O)c2ccccc2c1O` [MLS000700612], 23.9 µM.
In turn, `CC1CC(C)(C)N2C(=O)/C(=N\NC(N)=S)c3cccc1c32` (configuration not stated) [SMR000414933] gave an EC50 of over 150 µM.
With `CC(NNC(=O)c1cc2ccccc2cc1O)=C1C(=O)c2ccccc2C1=O` [N-[1-[1,3-bis(oxidanylidene)inden-2-yl]ethylideneamino]-3-oxidanyl-naphthalene-2-carboxamide] the figure was over 150 µM; with `CSc1cccc(-c2nnc(NC(=O)c3cccc(-n4c(O)ccc4O)c3)o2)c1` [SMR000811880], over 150 µM.
With `C=CCN1C(=O)NC(=O)C(=C(C)Nc2ccc(N(CC)CC)cc2)C1=O` [SMR000043704] the figure was over 150 µM; with `O=C(O)c1ccccc1N=NCc1cc(Br)cc(Br)c1O` [2-[2-[(E)-(3,5-dibromo-6-oxocyclohexa-2,4-dien-1-ylidene)methyl]hydrazinyl]benzoic acid], 32.4 µM.
